Assay results published in patent US20140335180A1, “PRODUCTS FOR ORAL ADMINISTRATION COMPRISING EXTRACTS OF PUNICA GRANATUM (POMEGRANATE), INTENDED FOR A PET, AND APPLICATIONS OF SAME” (VIRBAC SA, priority 2011, published 2014).
“And” between values parts separate entries of the source, which are not always exact repeats. Equal entries are not always repeated. “Also recorded” adds a separate entry of the source.

What was measured:
[1] = tested on: CnAOEC cells; test: 3H-thymidine proliferation test in canine aortic endothelial cells; format: cell-based; details: for effect on CnAOEC cell proliferation: reference substances, phase 1, 48 hours exposure
Protocol: The cells are cultured in a culture medium containing CECGM (Canine Endothelial Cell Growth Medium) growth factors and previously coated with AFS (Attachment Factor Solution) agent to assist with the adherence thereof.
The confluent CnAOEC cell cultures were re-inoculated in 96-well culture plates (10,000 cells per […]). Six hours after the inoculation thereof, the cells were exposed to ^3H-thymidine (final concentration: 1 μCi/ml) and to the respective test agents for 48 hours, and were subjected to two washing steps with PBS. After a treatment with trypsin and a freeze-thaw cycle, the DNA incorporating ^3H-thymidine was captured on a glass fiber filter using a “Betaplate™ 96-bien-Cell Harvester” (Wallac, Turku).
The quantities of ^3H-thymidine incorporated in the control cells (without adding test agent) were defined as 100% and the results were expressed as a function of these control cells.
The soy isoflavones were solubilized in DMSO. The experimental samples, and those of the respective controls (DMSO free from test substance) contained a final DMSO concentration of 1%.
The statistical evaluation is based on three or four separate experiments, each being performed with 2 to 4 independent wells.

[2] = tested on: CnAOEC cells; test: Protection of CnAOEC cells against H2O2 oxidative stress, MTT viability; format: cell-based, canine; details: 2 mM H2O2; for protective effect on CnAOEC cell viability: 50 μg/ml; for protective effect on CnAOEC cell viability against H2O2: 1 to 250 μg/ml
Protocol: The plates are then centrifuged, and the formazan resulting from the reaction with MTT is solubilized in DMSO. The absorbance is measured at 570 nm, with a correction at 690 nm. The ability of the natural substances to protect cells against the adverse effects of oxidative stress was evaluated in CnAOEC cells. […] After the pretreatment period, the cells were subjected to oxidative stress (2 mM H2O2) for 24 hours and the cell viability was evaluated using the MTT test as described above. For this test, the data are means obtained from eight different experiments±Standard Deviation (SD). They were analyzed statistically using a one-way ANOVA Student t-test. The differences were considered to be significant when p<0.05.

[3] = Trolox Equivalent Antioxidant Capacity (TEAC) assay; format: biochemical; details: for ABTS radical inhibition: Table A, 50 μg/ml and 250 μg/ml where stated
Protocol: This method is based on the ability of antioxidant molecules to inactivate ABTS° ^+ radical with a long lifetime, compared to Trolox, a water-soluble vitamin E analog, used as the positive control. ABTS° ^+ radical is blue-green chromophore with a characteristic absorption at 734 nm.
The samples of the test substances and Trolox are diluted in PBS buffer to obtain the chosen concentrations, Then, 200 μl of ABTS° ^+ at a concentration of 7 mM is added to 50 μl of sample or Trolox solution in 96-well plates.
The absorbance of the various samples is read every 2 minutes for 6 minutes (incubation time) at ambient temperature. The results are given as a percentage of ABTS radical inhibition, and as Trolox equivalent (μM).

[4] = DPPH antioxidant test; format: biochemical
Protocol: The absorbance of the mixture is read at 540 nm every 5 minutes for 30 minutes at ambient temperature. After reduction, the color of the solution disappears (change from a violet color to a light yellow color). The reduction (referred to herein as “inhibition” or “quenching”) percentage reflects the free radical scavenging capacity of the test sample. Trolox is also used as a positive control. The results are given as a DPPH radical inhibition percentage.

[5] = tested on: CnAOEC cells; test: 3H-thymidine DNA fragmentation apoptosis test in canine aortic endothelial cells; format: cell-based; details: for inhibition of the pro-apoptotic effects of free fatty acids: linoleic acid or γ-linolenic acid plus antioxidant, FIGS. 3 and 4; for effect on CnAOEC cell apoptosis: reference substances, phase 1, 24 hours exposure
Protocol: The 60 mm plates containing semi-confluent CnAOEC cells were labeled with ^3H-thymidine (1 μCi/ml) for 36 hours. These cells were then inoculated in 24-well culture plates (50,000 cells/well). After the exposure thereof to the agents under test (24 hours), the cells were treated with a lysis buffer (20 mmol/1 TrisHCl, pH 7.5, and 0.4% of Triton X-100 in PBS). The radiolabeled fragmented (apoptotic) DNA present in the supernatant was counted using a liquid scintillation analyzer. The results were then correlated with the total radioactivity incorporated in the cells (quantified after digestion of the remaining suspension with 180 μg/ml of DNase). The values calculated for the control cells (without adding test agent) were set at 100% and the results were expressed as a function of these control cells. Each time the reference substances were dissolved in ethanol (final concentration 1.5%), an identical quantity of ethanol was added to all the other wells, including the control wells.
The apoptosis tests were conducted with radiolabeled CnAOEC cells, at 60% confluence and in culture dishes previously treated with fibronectin.
The statistical evaluation is based on three separate experiments, each being performed with 2 to 4 independent wells.
The modulation of CnAOEC cell apoptosis (variation measured as a % relative to the control set at 100%) is performed in comparison to the reference substance glutathione (GSH).

[6] = tested on: CnAOEC cells; format: cell-based, canine; details: dog, 24 h, 60 µM
Protocol: The MTT test was used for evaluating the viability of CNAOEC cells exposed to cytotoxic treatments (60 μM of digitonin or addition between 0.1% and 20% of DMSO or at increasing concentrations (ranging from 0.5 mM to 16 mM) of H2O2 for 24 hours so as to induce oxidative stress.
In this test, the cell damage is evaluated 24 hours after treatment with the cytotoxic substance by means of a 4-hour incubation with MTT at 0.5 mg/ml, 37° C. and 5% CO2. The plates are then centrifuged, and the formazan resulting from the reaction with MTT is solubilized in DMSO. The absorbance is measured at 570 nm, with a correction at 690 nm.
The MTT test was chosen to measure the cell viability on the basis of the data obtained after treating the cell with 60 μm digitonin (73% reduction±10%) and with 10% and 20% DMSO.
The damage to the CnAOEC cells caused by free radicals is obtained from a treatment with H2O2 at a concentration range from 0.5 mM to 16 mM.

[7] = humans; cited from earlier work
[8] = dogs; cited from earlier work

With `C[N+](C)(C)C[C@H](O)CC(=O)[O-].O=C(O)C(O)C(O)C(=O)O` [L-carnitine, L-carnitine-L-tartrate] the “drop in CnAOEC cell proliferation” value ([1]; 50 μg/ml, 48 hours) was 3.75%, the “renewal rate (proliferation relative to control set at 100%)” value ([1]; 50 μg/ml, 48 hours) was 96.25% and the “protective effect on CnAOEC cell viability” value [2] was “not capable of maintaining CnAOEC cell viability”. The “protective effect on CnAOEC cell viability against H2O2” value [2] was “did not display a protective effect”, the “ABTS radical inhibition” value [3] was “did not display any effect; also recorded: do not display any scavenging activity with ABTS” and the “ABTS°+ inhibition %” value ([3]; sample 1 μg/ml) was 0.45%. The “ABTS°+ inhibition %” value ([3]; sample 50 μg/ml) was 0.37%, the “ABTS°+ inhibition %” value ([3]; sample 250 μg/ml) was 0.92% and the “% DPPH (radical inhibition)” value ([4]; sample 1 μg/ml) was 6.74%. The “% DPPH (radical inhibition)” value ([4]; sample 50 μg/ml) was 4.97%, the “% DPPH (radical inhibition)” value ([4]; sample 250 μg/ml) was 15% and 14.94% and the “DPPH scavenging activity” value ([4]; text on Table B) was “low”.

In the case of `CC(=O)N[C@@H](CS)C(=O)O` [N-acetylcysteine], the “inhibition of the pro-apoptotic effects of free fatty acids” value [5] is reported as “not completely inhibited” and the “effect on CnAOEC cell apoptosis” value [5] is reported as “inhibit apoptosis in CnAOEC cells significantly; also recorded: cell apoptosis is inhibited”.

In the case of `NCCS(=O)(=O)O` [Taurine, taurine], the “drop in CnAOEC cell proliferation” value ([1]; 50 μg/ml, 48 hours) is reported as 4%, the “protective effect on CnAOEC cell viability” value [2] is reported as “not capable of maintaining CnAOEC cell viability” and the “protective effect on CnAOEC cell viability against H2O2” value [2] is reported as “did not display a protective effect”. The “ABTS radical inhibition” value [3] was “did not display any effect; also recorded: do not display any scavenging activity with ABTS”, the “ABTS°+ inhibition %” value ([3]; sample 1 μg/ml) was −0.50% and the “ABTS°+ inhibition %” value ([3]; sample 50 μg/ml) was −0.69%. For the same compound, the “ABTS°+ inhibition %” value ([3]; sample 250 μg/ml) was −0.62%, the “% DPPH (radical inhibition)” value ([4]; sample 1 μg/ml) was 4.95% and the “% DPPH (radical inhibition)” value ([4]; sample 50 μg/ml) was 10.84%. For the same compound, the “% DPPH (radical inhibition)” value ([4]; sample 250 μg/ml) was 25.09% and the “% DPPH (radical inhibition)” value ([4]; sample 250 μg/ml, listed as taurine) was 24%.

In the case of `Cc1c(C)c2c(c(C)c1O)CCC(C)(C(=O)O)O2` (stereo not drawn) [Trolox, reference compound], the “% DPPH (radical inhibition)” value ([4]; 5 μM) is reported as 4.21%, the “% DPPH (radical inhibition)” value ([4]; 10 μM) is reported as 9.91% and the “% DPPH (radical inhibition)” value ([4]; 15 μM) is reported as 17.00%. The “% DPPH (radical inhibition)” value ([4]; 20 μM) was 23.49%, the “% DPPH (radical inhibition)” value ([4]; 25 μM) was 28.6% and the “% DPPH (radical inhibition)” value ([4]; 30 μM) was 33.06%. The “% DPPH (radical inhibition)” value ([4]; 40 μM) was 41.18%.

In the case of `C[C@@H]1CC[C@@]2(OC1)O[C@H]1[C@@H](O)[C@H]3[C@@H]4CC[C@H]5C[C@@H](O[C@@H]6O[C@H](CO)[C@H](O[C@@H]7O[C@H](CO)[C@@H](O)[C@H](O[C@@H]8OC[C@@H](O)[C@H](O)[C@H]8O)[C@H]7O[C@@H]7O[C@H](CO)[C@H](O)[C@H](O[C@@H]8O[C@H](CO)[C@@H](O)[C@H](O)[C@H]8O)[C@H]7O)[C@H](O)[C@H]6O)[C@H](O)C[C@]5(C)[C@H]4CC[C@]3(C)[C@H]1[C@@H]2C` [digitonin], the “reduction of cell viability (MTT)” value [6] is reported as 73%.

For `O=c1oc2c(O)c(O)cc3c(=O)oc4c(O)c(O)cc1c4c23` [ellagic acid], the “plasma concentration after dietary supplementation with pomegranate extract” value [7] is given as “approximately 10 μg/ml”.

For `O=c1c(-c2ccc(O)cc2)coc2cc(O)cc(O)c12` [genistein], the “plasma concentrations after oral supplementation” value [8] is listed as no more than 5000 ng/mL.

In the case of `N[C@@H](CCC(=O)N[C@@H](CS)C(=O)NCC(=O)O)C(=O)O` [glutathione], the “proliferation, % of the control” value ([1]; 10 mmol/l, positive control) is reported as 54.75%, the “effect on CnAOEC cell proliferation” value [1] is reported as “reduce CnAOEC cell proliferation considerably” and the “inhibition of the pro-apoptotic effects of free fatty acids” value [5] is reported as “not completely inhibited”. The “effect on CnAOEC cell apoptosis” value [5] was “inhibit apoptosis in CnAOEC cells significantly; also recorded: cell apoptosis is inhibited”.

In the case of `CCCCC/C=C\C/C=C\CCCCCCCC(=O)O` [linoleic acid, reference compound], the “effect on CnAOEC cell proliferation” value [1] is reported as “inhibit endothelial proliferation completely; also recorded: reduce CnAOEC cell proliferation considerably” and the “effect on CnAOEC cell apoptosis” value [5] is reported as “very strong pro-apoptotic reaction”.

In the case of `CCCCC/C=C\C/C=C\C/C=C\CCCCC(=O)O` [γ-linolenic acid, reference compound], the “effect on CnAOEC cell proliferation” value [1] is reported as “inhibit endothelial proliferation completely; also recorded: reduce CnAOEC cell proliferation considerably” and the “effect on CnAOEC cell apoptosis” value [5] is reported as “very strong pro-apoptotic reaction”.

With VEGF the “effect on CnAOEC cell proliferation” value [1] was “no pro-proliferation effect on CnAOEC cells; also recorded: did not induce the same response in CnAOEC cells; also recorded: have no influence on CnAOEC cell proliferation”.

In the case of “bFGF: basic Fibroblast Growth Factor, vascular growth factor reference”, the “effect on CnAOEC cell proliferation” value [1] is reported as “no pro-proliferation effect on CnAOEC cells; also recorded: did not induce the same response in CnAOEC cells; also recorded: have no influence on CnAOEC cell proliferation”.
